Test results reported in PubChem BioAssay (NCI).
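Protocol summary: plate cells (96-well), add compound at 5 concentrations, incubate 48 h, interpolate endpoints linearly. Definition used: TGI = concentration required for complete inhibition of growth.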

How the values were obtained:
Experiment in all cases: DTP human tumour cell line panel, 48 h
CCRF-CEM leukemia = tested on: CCRF-CEM leukemia
SNB-75 CNS = tested on: SNB-75 CNS
A498 renal = tested on: A498 renal
SK-MEL-5 melanoma = tested on: SK-MEL-5 melanoma
NCI/ADR-RES ovarian = tested on: NCI/ADR-RES ovarian
DU-145 prostate = tested on: DU-145 prostate
SK-MEL-2 melanoma = tested on: SK-MEL-2 melanoma
NCI-H226 lung = tested on: NCI-H226 lung
SR leukemia = tested on: SR leukemia
SK-OV-3 ovarian = tested on: SK-OV-3 ovarian
RPMI-8226 leukemia = tested on: RPMI-8226 leukemia
MALME-3M melanoma = tested on: MALME-3M melanoma
K-562 leukemia = tested on: K-562 leukemia
OVCAR-3 ovarian = tested on: OVCAR-3 ovarian
NCI-H460 lung = tested on: NCI-H460 lung
ACHN renal = tested on: ACHN renal
SW-620 colon = tested on: SW-620 colon
OVCAR-8 ovarian = tested on: OVCAR-8 ovarian
SF-268 CNS = tested on: SF-268 CNS
MCF7 breast = tested on: MCF7 breast
RXF 393 renal = tested on: RXF 393 renal
A549 NSCLC = tested on: A549 NSCLC
KM12 colon = tested on: KM12 colon
OVCAR-4 ovarian = tested on: OVCAR-4 ovarian
MOLT-4 leukemia = tested on: MOLT-4 leukemia
BT-549 breast = tested on: BT-549 breast
T-47D breast = tested on: T-47D breast
786-0 renal = tested on: 786-0 renal
SK-MEL-28 melanoma = tested on: SK-MEL-28 melanoma
TK-10 renal = tested on: TK-10 renal
SF-295 CNS = tested on: SF-295 CNS
HCT-15 colon = tested on: HCT-15 colon
PC-3 prostate = tested on: PC-3 prostate
UACC-257 melanoma = tested on: UACC-257 melanoma
HOP-62 NSCLC = tested on: HOP-62 NSCLC
UACC-62 melanoma = tested on: UACC-62 melanoma
HT29 colon = tested on: HT29 colon
IGROV1 ovarian = tested on: IGROV1 ovarian
OVCAR-5 ovarian = tested on: OVCAR-5 ovarian
MDA-MB-231 breast = tested on: MDA-MB-231 breast
SN12C renal = tested on: SN12C renal
UO-31 renal = tested on: UO-31 renal
COLO 205 colon = tested on: COLO 205 colon
M14 melanoma = tested on: M14 melanoma
NCI-H23 lung = tested on: NCI-H23 lung
NCI-H522 lung = tested on: NCI-H522 lung
HS 578T breast = tested on: HS 578T breast
SNB-19 CNS = tested on: SNB-19 CNS
MDA-N = tested on: MDA-N
SF-539 CNS = tested on: SF-539 CNS
CAKI-1 renal = tested on: CAKI-1 renal
MDA-MB-435 = tested on: MDA-MB-435
EKVX NSCLC = tested on: EKVX NSCLC
HCC-2998 colon = tested on: HCC-2998 colon
HOP-92 NSCLC = tested on: HOP-92 NSCLC
U251 CNS = tested on: U251 CNS
HCT-116 colon = tested on: HCT-116 colon
LOX IMVI melanoma = tested on: LOX IMVI melanoma
HL-60(TB) leukemia = tested on: HL-60(TB) leukemia

CCOC(=O)c1cn2c(n1)sc1cc(C)c(C)cc12
TGI (CCRF-CEM leukemia): > 100 µM | TGI (SNB-75 CNS): 44.8 µM | TGI (A498 renal): 32.6 µM | TGI (SK-MEL-5 melanoma): 32.1 µM | TGI (NCI/ADR-RES ovarian): 67.5 µM | TGI (DU-145 prostate): 48.8 µM | TGI (SK-MEL-2 melanoma): > 100 µM | TGI (NCI-H226 lung): 44.9 µM | TGI (SR leukemia): > 100 µM | TGI (SK-OV-3 ovarian): 69.2 µM | TGI (RPMI-8226 leukemia): 82.7 µM | TGI (MALME-3M melanoma): 35.1 µM | TGI (K-562 leukemia): > 100 µM | TGI (OVCAR-3 ovarian): 32.5 µM | TGI (NCI-H460 lung): > 100 µM | TGI (ACHN renal): 35.3 µM | TGI (SW-620 colon): 65.1 µM | TGI (OVCAR-8 ovarian): 52.3 µM | TGI (SF-268 CNS): 52.7 µM | TGI (MCF7 breast): > 100 µM | TGI (RXF 393 renal): 51.2 µM | TGI (A549 NSCLC): 38.2 µM | TGI (KM12 colon): > 100 µM | TGI (OVCAR-4 ovarian): > 100 µM | TGI (MOLT-4 leukemia): 91.1 µM | TGI (BT-549 breast): 72.4 µM | TGI (T-47D breast): 62.1 µM | TGI (786-0 renal): 34.9 µM | TGI (SK-MEL-28 melanoma): 48.4 µM | TGI (TK-10 renal): 57.1 µM | TGI (SF-295 CNS): > 100 µM | TGI (HCT-15 colon): > 100 µM | TGI (PC-3 prostate): 45.7 µM | TGI (UACC-257 melanoma): > 100 µM | TGI (HOP-62 NSCLC): 34.3 µM | TGI (UACC-62 melanoma): > 100 µM | TGI (HT29 colon): 33.8 µM | TGI (IGROV1 ovarian): 56.5 µM | TGI (OVCAR-5 ovarian): 36.4 µM | TGI (MDA-MB-231 breast): 58.4 µM | TGI (SN12C renal): 36.8 µM | TGI (UO-31 renal): 35.4 µM | TGI (COLO 205 colon): 55 µM | TGI (M14 melanoma): 85.2 µM | TGI (NCI-H23 lung): > 100 µM | TGI (NCI-H522 lung): 94.4 µM | TGI (HS 578T breast): 79.3 µM | TGI (SNB-19 CNS): 42.9 µM | TGI (MDA-N): 22 µM | TGI (SF-539 CNS): 29.6 µM | TGI (CAKI-1 renal): 39.4 µM | TGI (MDA-MB-435): > 100 µM | TGI (EKVX NSCLC): 61.7 µM | TGI (HCC-2998 colon): > 100 µM | TGI (HOP-92 NSCLC): 65.4 µM | TGI (U251 CNS): 41.2 µM | TGI (HCT-116 colon): 33.7 µM | TGI (LOX IMVI melanoma): > 100 µM

CC1=C(C(=O)N[C@@H](CC(C)C)C(=O)O)N2C(=O)[C@@H](NC(=O)[C@@H](N)Cc3ccccc3)[C@H]2SC1
TGI (CCRF-CEM leukemia): > 100 µM | TGI (SNB-75 CNS): > 100 µM | TGI (A498 renal): > 100 µM | TGI (SK-MEL-5 melanoma): > 100 µM | TGI (NCI/ADR-RES ovarian): > 100 µM | TGI (DU-145 prostate): > 100 µM | TGI (SK-MEL-2 melanoma): > 100 µM | TGI (NCI-H226 lung): > 100 µM | TGI (SR leukemia): > 100 µM | TGI (RPMI-8226 leukemia): > 100 µM | TGI (MALME-3M melanoma): > 100 µM | TGI (K-562 leukemia): > 100 µM | TGI (OVCAR-3 ovarian): > 100 µM | TGI (NCI-H460 lung): > 100 µM | TGI (ACHN renal): > 100 µM | TGI (SW-620 colon): > 100 µM | TGI (OVCAR-8 ovarian): > 100 µM | TGI (SF-268 CNS): > 100 µM | TGI (MCF7 breast): > 100 µM | TGI (RXF 393 renal): > 100 µM | TGI (A549 NSCLC): > 100 µM | TGI (KM12 colon): > 100 µM | TGI (OVCAR-4 ovarian): > 100 µM | TGI (MOLT-4 leukemia): > 100 µM | TGI (BT-549 breast): > 100 µM | TGI (T-47D breast): > 100 µM | TGI (786-0 renal): > 100 µM | TGI (SK-MEL-28 melanoma): > 100 µM | TGI (TK-10 renal): > 100 µM | TGI (SF-295 CNS): > 100 µM | TGI (HCT-15 colon): > 100 µM | TGI (PC-3 prostate): > 100 µM | TGI (UACC-257 melanoma): > 100 µM | TGI (UACC-62 melanoma): > 100 µM | TGI (IGROV1 ovarian): > 100 µM | TGI (OVCAR-5 ovarian): > 100 µM | TGI (MDA-MB-231 breast): > 100 µM | TGI (SN12C renal): > 100 µM | TGI (COLO 205 colon): > 100 µM | TGI (M14 melanoma): > 100 µM | TGI (NCI-H522 lung): > 100 µM | TGI (HS 578T breast): > 100 µM | TGI (SNB-19 CNS): > 100 µM | TGI (MDA-N): > 100 µM | TGI (SF-539 CNS): > 100 µM | TGI (CAKI-1 renal): > 100 µM | TGI (MDA-MB-435): > 100 µM | TGI (EKVX NSCLC): > 100 µM | TGI (HCC-2998 colon): > 100 µM | TGI (HOP-92 NSCLC): > 100 µM | TGI (U251 CNS): > 100 µM | TGI (HL-60(TB) leukemia): > 100 µM | TGI (LOX IMVI melanoma): > 100 µM

O=C(O)CSc1ccc(N=C=S)cc1
TGI (CCRF-CEM leukemia): 51.5 µM | TGI (SNB-75 CNS): > 100 µM | TGI (A498 renal): > 100 µM | TGI (SK-MEL-5 melanoma): > 100 µM | TGI (NCI/ADR-RES ovarian): > 100 µM | TGI (DU-145 prostate): > 100 µM | TGI (SK-MEL-2 melanoma): > 100 µM | TGI (NCI-H226 lung): > 100 µM | TGI (SR leukemia): 47.5 µM | TGI (SK-OV-3 ovarian): > 100 µM | TGI (RPMI-8226 leukemia): 57.1 µM | TGI (MALME-3M melanoma): 84 µM | TGI (OVCAR-3 ovarian): > 100 µM | TGI (NCI-H460 lung): > 100 µM | TGI (ACHN renal): > 100 µM | TGI (SW-620 colon): > 100 µM | TGI (OVCAR-8 ovarian): > 100 µM | TGI (SF-268 CNS): > 100 µM | TGI (MCF7 breast): > 100 µM | TGI (RXF 393 renal): > 100 µM | TGI (A549 NSCLC): > 100 µM | TGI (KM12 colon): > 100 µM | TGI (OVCAR-4 ovarian): > 100 µM | TGI (MOLT-4 leukemia): > 100 µM | TGI (BT-549 breast): > 100 µM | TGI (T-47D breast): > 100 µM | TGI (786-0 renal): > 100 µM | TGI (SK-MEL-28 melanoma): > 100 µM | TGI (TK-10 renal): > 100 µM | TGI (SF-295 CNS): > 100 µM | TGI (HCT-15 colon): > 100 µM | TGI (PC-3 prostate): > 100 µM | TGI (UACC-257 melanoma): > 100 µM | TGI (HOP-62 NSCLC): > 100 µM | TGI (UACC-62 melanoma): > 100 µM | TGI (HT29 colon): > 100 µM | TGI (IGROV1 ovarian): > 100 µM | TGI (OVCAR-5 ovarian): > 100 µM | TGI (MDA-MB-231 breast): > 100 µM | TGI (SN12C renal): > 100 µM | TGI (UO-31 renal): > 100 µM | TGI (COLO 205 colon): > 100 µM | TGI (M14 melanoma): > 100 µM | TGI (NCI-H23 lung): > 100 µM | TGI (NCI-H522 lung): > 100 µM | TGI (HS 578T breast): > 100 µM | TGI (SNB-19 CNS): > 100 µM | TGI (MDA-N): > 100 µM | TGI (SF-539 CNS): 77.1 µM | TGI (CAKI-1 renal): > 100 µM | TGI (MDA-MB-435): > 100 µM | TGI (EKVX NSCLC): > 100 µM | TGI (HCC-2998 colon): > 100 µM | TGI (HOP-92 NSCLC): > 100 µM | TGI (U251 CNS): > 100 µM | TGI (HCT-116 colon): > 100 µM | TGI (LOX IMVI melanoma): > 100 µM
